Measurements as given in patent US8153663B2, “3-amino-indazole or 3-amino-4,5,6,7-tetrahydro-indazole derivatives” (Hoffmann-La Roche Inc., priority 2008, dated 2012).

Biological target: T1, FXR ligand binding domain (GST-FXR LBD fusion protein, human FXR aa 193-473) (Homo sapiens, UniProt Q96RI1)
T1 construct: made in house; host or cells: E. coli BL21(pLysS)
T1 sequence (Q96RI1 193-472 isoform Q96RI1-2 limits assumed): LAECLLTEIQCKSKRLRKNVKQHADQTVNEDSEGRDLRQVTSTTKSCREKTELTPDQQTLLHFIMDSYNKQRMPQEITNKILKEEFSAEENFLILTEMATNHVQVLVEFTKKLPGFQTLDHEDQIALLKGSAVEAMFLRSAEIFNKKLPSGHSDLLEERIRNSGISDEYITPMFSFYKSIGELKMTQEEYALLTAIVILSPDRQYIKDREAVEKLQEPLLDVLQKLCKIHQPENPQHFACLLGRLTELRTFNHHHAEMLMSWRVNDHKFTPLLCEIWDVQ
Test: Radioligand binding assay (radioligand displacement, scintillation proximity)
Settings: 40 nM GST-FXR LBD on SPA beads, radioligand 2,N-dicyclohexyl-2-[2-(2,4 dimethoxy-phenyl)-benzoimidazol-1-yl]-acetamide, RT 30 minutes
Method: The following tests were carried out in order to determine the activity of the compounds of formula I. Background information on the binding assay can be found in: Nichols J S et al. “Development of a scintillation proximity assay for peroxisome proliferator-activated receptor gamma ligand binding domain”, (1998) Anal. Biochem. 257: 112-119.
Bacterial and mammalian expression vectors were constructed to produce glutathione-s-transferase (GST) and Gal4 DNA binding domain (GAL) proteins fused to the ligand binding domain (LBD) of human FXR (aa 193-473). To accomplish this, the portions of the sequences encoding the FXR LBD were amplified by polymerase chain reaction (PCR) from a full-length clone by PCR and then subcloned into the plasmid vectors. The final clone was verified by DNA sequence analysis.
The induction, expression, and subsequent purification of GST-LBD fusion protein was performed in E. coli strain BL21(pLysS) cells by standard methods (Current Protocols in Molecular Biology, Wiley Press, ed. Ausubel et al).
Radioligand Binding Assay
Binding of test substances to the FXR ligand binding domain was assessed in a radioligand displacement assay. The assay was performed in a buffer consisting of 50 mM Hepes, pH 7.4, 10 mM NaCl, 5 mM MgCl2. For each reaction well in a 96-well plate, 40 nM of GST-FXR LBD fusion protein was bound to 10 μg glutathione ytrium silicate SPA beads (Pharmacia Amersham) in a final volume of 50 μl by shaking. A radioligand (e.g. 40 nM) of 2,N-dicyclohexyl-2-[2-(2,4 dimethoxy-phenyl)-benzoimidazol-1-yl]-acetamide) was added, and the reaction incubated at RT for 30 minutes in the presence of test compounds followed by scintillation proximity counting. All binding assays were performed in 96-well plates and the amount of bound ligand was measured on a Packard TopCount using OptiPlates (Packard). Dose response curves were performed within a range of concentration from 6×10^−9 M to 2.5×10^−5 M.

For CC(C)(C(=O)O)c1ccc(NC(=O)N(c2c3ccccc3nn2-c2ccc(Cl)cc2)C2CCCCC2)c(F)c1 [Example 32, 2-(4-{3-[2-(4-Chloro-phenyl)-2H-indazol-3-yl]-3-cyclohexyl-ureido}-3-fluoro-phenyl)-2-methyl-propionic acid], the IC50 was 3350 nM.

In the case of O=C(NC1CCCCC1)N(c1ccc(F)c(Cl)c1)c1c2ccccc2nn1-c1ccc(Cl)cc1 [Example 28, 1-(3-Chloro-4-fluoro-phenyl)-1-[2-(4-chloro-phenyl)-2H-indazol-3-yl]-3-cyclohexyl-urea], the IC50 is reported as 70 nM.

Work on O=C(O)CCc1ccc(NC(=O)N(c2c3ccccc3nn2-c2ccc(Cl)cc2)C2CCCCC2)c(F)c1 [Example 26, 3-(4-{3-[2-(4-Chloro-phenyl)-2H-indazol-3-yl]-3-cyclohexyl-ureido}-3-fluoro-phenyl)-propionic acid] yielded an IC50 of 340 nM.

For O=C(NC1CCCCC1)N(c1cccc(Cl)c1)c1c2ccccc2nn1-c1ccc(Cl)cc1 [Example 19, 1-(3-Chloro-phenyl)-1-[2-(4-chloro-phenyl)-2H-indazol-3-yl]-3-cyclohexyl-urea], the IC50 was 20 nM.

O=C(O)c1ccc(NC(=O)N(c2c3cc(F)c(F)cc3nn2-c2ccc(Cl)cc2)C2CCCCC2)c(Cl)c1 [Example 16, 3-Chloro-4-{3-[2-(4-chloro-phenyl)-5,6-difluoro-2H-indazol-3-yl]-3-cyclohexyl-ureido}-benzoic acid] was tested, and the IC50 was 400 nM.

COCCN(C(=O)NC1CCCCC1)c1c2ccccc2nn1-c1ccc(Cl)cc1 [Example 17, 1-[2-(4-Chloro-phenyl)-2H-indazol-3-yl]-3-cyclohexyl-1-(2-methoxy-ethyl)-urea] showed an IC50 of 2330 nM.

For O=C(NC1CCCCC1)N(c1c2ccc(F)cc2nn1-c1ccc(Cl)cc1)C1CCCCC1 [Example 40, 1-[2-(4-Chloro-phenyl)-6-fluoro-2H-indazol-3-yl]-1,3-dicyclohexyl-urea], the IC50 was 20 nM.

O=C(NC1CCCCC1)N(c1ccccc1)c1c2ccccc2nn1-c1ccc(Cl)cc1 [Example 15, 1-[2-(4-Chloro-phenyl)-2H-indazol-3-yl]-3-cyclohexyl-1-phenyl-urea] gave an IC50 of 460 nM.

For O=C(OC1CCCCC1)N(c1c2ccccc2nn1-c1ccc(Cl)cc1)C1CCCCC1 [Example 37, [2-(4-Chloro-phenyl)-2H-indazol-3-yl]-cyclohexyl-carbamic acid cyclohexyl ester], the IC50 was 60 nM.

O=C(NC1CCCCC1)N(c1cccc(Cl)c1)c1c2cc(F)c(F)cc2nn1-c1cccc(Cl)c1 [Example 43, 1-(3-Chloro-phenyl)-1-[2-(3-chloro-phenyl)-5,6-difluoro-2H-indazol-3-yl]-3-cyclohexyl-urea] showed an IC50 of 80 nM.

With O=C(O)c1ccc(NC(=O)N(c2c3ccccc3nn2-c2ccc(Cl)cc2)C2CCC2)c(Cl)c1 [Example 31, 3-Chloro-4-{3-[2-(4-chloro-phenyl)-2H-indazol-3-yl]-3-cyclobutyl-ureido}-benzoic acid] the IC50 was 4310 nM.

Work on O=C(NC1CCCCC1)N(c1cccc(Cl)c1)c1c2ccc(F)cc2nn1-c1ccc(Cl)cc1 [Example 44, 1-(3-Chloro-phenyl)-1-[2-(4-chloro-phenyl)-6-fluoro-2H-indazol-3-yl]-3-cyclohexyl-urea] yielded an IC50 of 100 nM.

O=C(NC1CCCCC1)N(c1c2ccccc2nn1-c1ccc(Cl)cc1)C1CCOCC1 [Example 10, 1-[2-(4-Chloro-phenyl)-2H-indazol-3-yl]-3-cyclohexyl-1-(tetrahydro-pyran-4-yl)-urea] was tested, and the IC50 was 660 nM.

For O=C(NC1CCCC1)N(c1c2ccccc2nn1-c1ccc(Cl)cc1)C1CCCC1 [Example 38, 1-[2-(4-Chloro-phenyl)-2H-indazol-3-yl]-1,3-dicyclopentyl-urea], the IC50 was 240 nM.

O=C(N[C@H]1CC[C@H](O)CC1)N(c1cccc(Cl)c1)c1c2ccccc2nn1-c1ccc(Cl)cc1 [Example 41, trans-1-(3-Chloro-phenyl)-1-[2-(4-chloro-phenyl)-2H-indazol-3-yl]-3-(4-hydroxy-cyclohexyl)-urea] was tested, and the IC50 was 300 nM.

With O=C(Nc1ccccc1F)N(c1c2ccccc2nn1-c1ccccc1)C1CCCCC1 [Example 3, 1-Cyclohexyl-3-(2-fluoro-phenyl)-1-(2-phenyl-2H-indazol-3-yl)-urea] the IC50 was 830 nM.

With O=C(O)Cc1ccc(NC(=O)N(c2c3ccccc3nn2-c2ccc(Cl)cc2)C2CCCCC2)c(Cl)c1 [Example 21, (3-Chloro-4-{3-[2-(4-chloro-phenyl)-2H-indazol-3-yl]-3-cyclohexyl-ureido}-phenyl)-acetic acid] the IC50 was 720 nM.

Compound CCCCN(C(=O)NC1CCCCC1)c1c2ccccc2nn1-c1ccc(Cl)cc1 [Example 4, 1-Butyl-1-[2-(4-chloro-phenyl)-2H-indazol-3-yl]-3-cyclohexyl-urea] has an IC50 of 180 nM.

CCCCN(C(=O)Nc1ccc(C(=O)O)cc1Cl)c1c2ccccc2nn1-c1ccc(Cl)cc1 [Example 12, 4-{3-Butyl-3-[2-(4-chloro-phenyl)-2H-indazol-3-yl]-ureido}-3-chloro-benzoic acid] was tested, and the IC50 was 790 nM.

In the case of O=C(O)c1ccc(NC(=O)N(Cc2ccccc2)c2c3ccccc3nn2-c2ccc(Cl)cc2)c(Cl)c1 [Example 9, 4-{3-Benzyl-3-[2-(4-chloro-phenyl)-2H-indazol-3-yl]-ureido}-3-chloro-benzoic acid], the IC50 is reported as 1080 nM.

In the case of O=C(NC1CCCCC1)N(c1cccc(Cl)c1)c1c2ccc(F)cc2nn1-c1cccc(Cl)c1 [Example 35, 1-(3-Chloro-phenyl)-1-[2-(3-chloro-phenyl)-6-fluoro-2H-indazol-3-yl]-3-cyclohexyl-urea], the IC50 is reported as 20 nM.

O=C(NC1CCCCC1)N(c1c2ccccc2nn1-c1ccc(Cl)cc1)C1CCCCC1 [Example 11, 1-[2-(4-Chloro-phenyl)-2H-indazol-3-yl]-1,3-dicyclohexyl-urea] showed an IC50 of 20 nM.

O=C(NC1CCCCC1)N(c1c2ccccc2nn1-c1ccccc1)C1CCCCC1 [Example 1, 1,3-Dicyclohexyl-1-(2-phenyl-2H-indazol-3-yl)-urea] showed an IC50 of 40 nM.

With CCOc1cccc(N(C(=O)NC2CCCCC2)c2c3ccccc3nn2-c2ccc(Cl)cc2)c1 [Example 25, 1-[2-(4-Chloro-phenyl)-2H-indazol-3-yl]-3-cyclohexyl-1-(3-ethoxy-phenyl)-urea] the IC50 was 790 nM.
